# Measurements reported in patent US7803930B2, “Antisense modulation of apolipoprotein B-expression” (Isis Pharmaceuticals, Inc., priority 2002, dated 2010).
# In the oligonucleotide strings, read from the 5' end, every base follows the letter of its sugar. An asterisk marks phosphorothioate; unmarked linkages are phosphodiester. Other units and linkages are bracketed, terminal groups are in braces. A string of capitals states the bases alone. e = 2'-O-(2-methoxyethyl) (MOE); [5mC] = 5-methylcytosine; d = 2'-deoxy (DNA)
# Test system: human apolipoprotein B mRNA
# Assay: Inhibition of human apolipoprotein B mRNA levels in HepG2 cells, quantitative real-time PCR
# Format: cell-based
# Settings: HepG2 cells treated with 150 nM of compound; averages from two experiments; quantitative real-time PCR
# Experimental: The human hepatoblastoma cell line HepG2 was obtained from the American Type Culture Collection (Manassas, Va.). HepG2 cells were routinely cultured in Eagle's MEM supplemented with 10% fetal calf serum, non-essential amino acids, and 1 mM sodium pyruvate (Gibco/Life Technologies, Gaithersburg, Md.). Cells were routinely passaged by trypsinization and dilution when they reached 90% confluence. Cells were seeded into 96-well plates (Falcon-Primaria #3872) at a density of 7000 cells/well for use in RT-PCR analysis.
# When cells reached 80% confluency, they were treated with oligonucleotide. For cells grown in 96-well plates, wells were washed once with 200 μL OPTI-MEM™-1 reduced-serum medium (Gibco BRL) and then treated with 130 μL of OPTI-MEM™-1 containing 3.75 μg/mL LIPOFECTIN™ (Gibco BRL) and the desired concentration of oligonucleotide. After 4-7 hours of treatment, the medium was replaced with fresh medium. Cells were harvested 16-24 hours after oligonucleotide treatment.
# Quantitation of apolipoprotein B mRNA levels was determined by real-time quantitative PCR using the ABI PRISM™ 7700 Sequence Detection System (PE-Applied Biosystems, Foster City, Calif.) according to manufacturer's instructions. This is a closed-tube, non-gel-based, fluorescence detection system which allows high-throughput quantitation of polymerase chain reaction (PCR) products in real-time. As opposed to standard PCR, in which amplification products are quantitated after the PCR is completed, products in real-time quantitative PCR are quantitated as they accumulate. This is accomplished by including in the PCR reaction an oligonucleotide probe that anneals specifically between the forward and reverse PCR primers, and contains two fluorescent dyes. A reporter dye (e.g., JOE, FAM, or VIC, obtained from either Operon Technologies Inc., Alameda, Calif. or PE-Applied Biosystems, Foster City, Calif.) is attached to the 5′ end of the probe and a quencher dye (e.g., TAMRA, obtained from either Operon Technologies Inc., Alameda, Calif. or PE-Applied Biosystems, Foster City, Calif.) is attached to the 3′ end of the probe. When the probe and dyes are intact, reporter dye emission is quenched by the proximity of the 3′ quencher dye. During amplification, annealing of the probe to the target sequence creates a substrate that can be cleaved by the 5′-exonuclease activity of Taq polymerase. […] With each cycle, additional reporter dye molecules are cleaved from their respective probes, and the fluorescence intensity is monitored at regular intervals by laser optics built into the ABI PRISM™ 7700 Sequence Detection System. In each assay, a series of parallel reactions containing serial dilutions of mRNA from untreated control samples generates a standard curve that is used to quantitate the percent inhibition after antisense oligonucleotide treatment of test samples.
# PCR reagents were obtained from PE-Applied Biosystems, Foster City, Calif. RT-PCR reactions were carried out by adding 25 μL PCR cocktail (1× TAQMAN™ buffer A, 5.5 mM MgCl2, 300 μM each of DATP, dCTP and dGTP, 600 μM of dUTP, 100 nM each of forward primer, reverse primer, and probe, 20 Units RNAse inhibitor, 1.25 Units AMPLITAQ GOLD™, and 12.5 Units MuLV reverse transcriptase) to 96 well plates containing 25 μL total RNA solution. The RT reaction was carried out by incubation for 30 minutes at 48° C. Following a 10 minute incubation at 95° C. to activate the AMPLITAQ GOLD™, 40 cycles of a two-step PCR protocol were carried out: 95° C. for 15 seconds (denaturation) followed by 60° C. for 1.5 minutes (annealing/extension).
# Gene target quantities obtained by real time RT-PCR are normalized using either the expression level of GAPDH, a gene whose expression is constant, or by quantifying total RNA using RiboGreen™ (Molecular Probes, Inc. Eugene, Oreg.). GAPDH expression is quantified by real time RT-PCR, by being run simultaneously with the target, multiplexing, or separately. […]
row,Substance,% INHIB (inhibition of human apolipoprotein B mRNA levels) [%]
1,270987 (antisense e[5mC]*e[5mC]*eT*e[5mC]*e[5mC]*dA*dG*d[5mC]*dT*d[5mC]*dA*dA*d[5mC]*d[5mC]*dT*eT*eG*e[5mC]*eA*eG) [compound 270987],0
2,270988 (antisense eG*eG*eG*eT*eT*dG*dA*dA*dG*d[5mC]*d[5mC]*dA*dT*dA*d[5mC]*eA*e[5mC]*e[5mC]*eT*e[5mC]) [compound 270988],6
3,270989 (antisense e[5mC]*e[5mC]*eA*eG*e[5mC]*dT*dT*dG*dA*dG*d[5mC]*dT*d[5mC]*dA*dT*eA*e[5mC]*e[5mC]*eT*eG) [compound 270989],64
4,270990 (antisense e[5mC]*e[5mC]*e[5mC]*eT*e[5mC]*dT*dT*dG*dA*dT*dG*dT*dT*d[5mC]*dA*eG*eG*eA*eT*eG) [compound 270990],42
5,270991 (antisense eG*eA*eG*e[5mC]*eA*dG*dT*dT*dT*d[5mC]*d[5mC]*dA*dT*dA*d[5mC]*eA*e[5mC]*eG*eG*eT) [compound 270991],21
6,270992 (antisense e[5mC]*e[5mC]*e[5mC]*eT*eT*d[5mC]*d[5mC]*dT*d[5mC]*dG*dT*d[5mC]*dT*dT*dG*eA*e[5mC]*eG*eG*eT) [compound 270992],8
7,270993 (antisense eT*eT*eG*eA*eA*dG*d[5mC]*dG*dA*dT*d[5mC]*dA*d[5mC]*dA*d[5mC]*eT*eG*e[5mC]*e[5mC]*e[5mC]) [compound 270993],69
8,270994 (antisense eG*e[5mC]*e[5mC]*eT*eT*dT*dG*dA*dT*dG*dA*dG*dA*dG*d[5mC]*eA*eA*eG*eT*eG) [compound 270994],51
9,270995 (antisense eT*e[5mC]*e[5mC]*eT*e[5mC]*dT*dT*dA*dG*d[5mC]*dG*dT*d[5mC]*d[5mC]*dA*eG*eT*eG*eT*eG) [compound 270995],40
10,270996 (antisense e[5mC]*e[5mC]*eT*e[5mC]*eT*d[5mC]*dA*dG*d[5mC]*dT*d[5mC]*dA*dG*dT*dA*eA*e[5mC]*e[5mC]*eA*eG) [compound 270996],0
11,270997 (antisense eG*e[5mC]*eA*e[5mC]*eT*dG*dA*dG*dG*d[5mC]*dT*dG*dT*d[5mC]*d[5mC]*eA*e[5mC]*eA*e[5mC]*eT) [compound 270997],24
12,270998 (antisense e[5mC]*eG*e[5mC]*eT*eG*dA*dT*d[5mC]*d[5mC]*d[5mC]*dT*d[5mC]*dG*d[5mC]*d[5mC]*eA*eT*eG*eT*eT) [compound 270998],1
13,270999 (antisense eG*eT*eT*eG*eA*d[5mC]*d[5mC]*dG*d[5mC]*dG*dT*dG*dG*d[5mC]*dT*e[5mC]*eA*eG*e[5mC]*eG) [compound 270999],76
14,271000 (antisense eG*e[5mC]*eA*eG*e[5mC]*dT*d[5mC]*d[5mC]*dT*dG*dG*dG*dT*d[5mC]*d[5mC]*e[5mC]*eT*eG*eT*eA) [compound 271000],22
15,271001 (antisense e[5mC]*e[5mC]*e[5mC]*eA*eT*dG*dG*dT*dA*dG*dA*dA*dT*dT*dT*eG*eG*eA*e[5mC]*eA) [compound 271001],53
16,271002 (antisense eA*eA*eT*e[5mC]*eT*d[5mC]*dG*dA*dT*dG*dA*dG*dG*dT*d[5mC]*eA*eG*e[5mC]*eT*eG) [compound 271002],48
17,271003 (antisense eG*eA*e[5mC]*eA*e[5mC]*d[5mC]*dA*dT*d[5mC]*dA*dG*dG*dA*dA*d[5mC]*eT*eT*eG*eA*e[5mC]) [compound 271003],46
